Results reported in US20140018376A1, “Use of 1H-Quinazoline-2,4-Diones” (priority 2009, published 2014).

System: mouse
Test: Oral activity in vivo: audiogenic mouse test and/or MES test
Conditions: oral administration
Protocol: The oral bioavailability was tested using the audiogenic mouse test (Audiogenic seizures, R. L. Collins; Chapter 14, pages: 347-372. In: Experimental Models of Epilepsy; By: Pupura, Penry, Tower, Woodbury, Walter, Raven Press, New York, 1972. Standard Book Number: 0-911216-26-X) and/or the MES test.

| SMILES | In vivo orally active |
| --- | --- |
| Cn1nncc1-c1cc2c(=O)n(NS(C)(=O)=O)c(=O)[nH]c2cc1C(F)(F)F [Comparative, N-(6-(1-methyl-1H-1,2,3-triazol-5-yl)-2,4-dioxo-7-trifluoromethyl-1,4-dihydro-2H-quinazolin-3-yl]-methanesulfonamide, reference compound] | No |
| CC(O)c1cc2c(=O)n(NS(C)(=O)=O)c(=O)[nH]c2cc1C(F)(F)F (stereo not drawn) [Compound A-1, N-[6-(1-Hydroxy-ethyl)-2,4-dioxo-7-trifluoromethyl-1,4-dihydro-2H-quinazolin-3-yl]-methanesulfonamide] | Yes |
| COC(C)c1cc2c(=O)n(NS(C)(=O)=O)c(=O)[nH]c2cc1C(F)(F)F (stereo not drawn) [Compound A-2, N-[6-(1-Methoxy-ethyl)-2,4-dioxo-7-trifluoromethyl-1,4-dihydro-2H-quinazolin-3-yl]-methanesulfonamide] | Yes |
| CCC(O)c1cc2c(=O)n(NS(C)(=O)=O)c(=O)[nH]c2cc1C(F)(F)F (stereo not drawn) [Compound A-3, N-[6-(1-Hydroxy-propyl)-2,4-dioxo-7-trifluoromethyl-1,4-dihydro-2H-quinazolin-3-yl]-methanesulfonamide] | Yes |
| CC(C)OC(C)c1cc2c(=O)n(NS(C)(=O)=O)c(=O)[nH]c2cc1C(F)(F)F (stereo not drawn) [Compound A-4, N-[6-(1-Isopropoxy-ethyl)-2,4-dioxo-7-trifluoromethyl-1,4-dihydro-2H-quinazolin-3-yl]-methanesulfonamide] | Yes |
| CCOC(C)c1cc2c(=O)n(NS(C)(=O)=O)c(=O)[nH]c2cc1C(F)(F)F (stereo not drawn) [Compound A-5, N-[6-(1-Ethoxy-ethyl)-2,4-dioxo-7-trifluoromethyl-1,4-dihydro-2H-quinazolin-3-yl]-methanesulfonamide] | Yes |
| CCCOC(CC)c1cc2c(=O)n(NS(C)(=O)=O)c(=O)[nH]c2cc1C(F)(F)F (stereo not drawn) [Compound A-6, N-[2,4-Dioxo-6-(1-propoxy-propyl)-7-trifluoromethyl-1,4-dihydro-2H-quinazolin-3-yl]-methanesulfonamide] | Yes |
| CCC(OC(C)C)c1cc2c(=O)n(NS(C)(=O)=O)c(=O)[nH]c2cc1C(F)(F)F (stereo not drawn) [Compound A-7, N-[6-(1-isopropoxy-propyl)-2,4-dioxo-7-trifluoromethyl-1,4-dihydro-2H-quinazolin-3-yl]-methanesulfonamide] | Yes |
| CCOC(CC)c1cc2c(=O)n(NS(C)(=O)=O)c(=O)[nH]c2cc1C(F)(F)F (stereo not drawn) [Compound A-13, N-[6-(1-Ethoxy-propyl)-2,4-dioxo-7-trifluoromethyl-1,4-dihydro-2H-quinazolin-3-yl]-methanesulfonamide] | Yes |
| CC(OC1CCCC1)c1cc2c(=O)n(NS(C)(=O)=O)c(=O)[nH]c2cc1C(F)(F)F (stereo not drawn) [Compound A-14, N-[6-(1-Cyclopentyloxy-ethyl)-2,4-dioxo-7-trifluoromethyl-1,4-dihydro-2H-quinazolin-3-yl]-methanesulfonamide] | yes |
| CCCC(O)c1cc2c(=O)n(NS(C)(=O)=O)c(=O)[nH]c2cc1C(F)(F)F (stereo not drawn) [Compound A-15, N-[6-(1-Hydroxy-butyl)-2,4-dioxo-7-trifluoromethyl-1,4-dihydro-2H-quinazolin-3-yl]-methanesulfonamide] | Yes |
| COCCC(O)c1cc2c(=O)n(NS(C)(=O)=O)c(=O)[nH]c2cc1C(F)(F)F (stereo not drawn) [Compound A-18, N-[6-(1-Hydroxy-3-methoxy-propyl)-2,4-dioxo-7-trifluoromethyl-1,4-dihydro-2H-quinazolin-3-yl]-methanesulfonamide] | Yes |
| CS(=O)(=O)Nn1c(=O)[nH]c2cc(C(F)(F)F)c(C3CCCO3)cc2c1=O (stereo not drawn) [Compound B-2, N-[2,4-Dioxo-6-(tetrahydro-furan-2-yl)-7-trifluoromethyl-1,4-dihydro-2H-quinazolin-3-yl]-methanesulfonamide] | Yes |
| CS(=O)(=O)Nn1c(=O)[nH]c2cc(C(F)(F)F)c(C3CCOC3)cc2c1=O (stereo not drawn) [Compound B-3, N-[2,4-Dioxo-6-(tetrahydro-furan-3-yl)-7-trifluoromethyl-1,4-dihydro-2H-quinazolin-3-yl]-methanesulfonamide] | Yes |
| COCCn1nccc1-c1cc2c(=O)n(NS(C)(=O)=O)c(=O)[nH]c2cc1C(C)C [Compound C-1, N-{7-Isopropyl-6-[2-(2-methoxy-ethyl)-2H-pyrazol-3-yl]-2,4-dioxo-1,4-dihydro-2H-quinazolin-3-yl}-methanesulfonamide] | yes |
| CC(C)n1nccc1-c1cc2c(=O)n(NS(C)(=O)=O)c(=O)[nH]c2cc1C(F)(F)F [Compound C-2, N-[6-(2-Isopropyl-2H-pyrazol-3-yl)-2,4-dioxo-7-trifluoromethyl-1,4-dihydro-2H-quinazolin-3-yl]-methanesulfonamide] | Yes |
| CC(C)n1nccc1-c1cc2c(=O)n(NS(C)(=O)=O)c(=O)[nH]c2cc1CF [Compound C-3, N-[7-Fluoromethyl-6-(2-isopropyl-2H-pyrazol-3-yl)-2,4-dioxo-1,4-dihydro-2H-quinazolin-3-yl]-methanesulfonamide] | Yes |
| COCCn1nccc1-c1cc2c(=O)n(NS(C)(=O)=O)c(=O)[nH]c2cc1C(F)(F)F [Compound C-4, N-{6-[2-(2-Methoxy-ethyl)-2H-pyrazol-3-yl]-2,4-dioxo-7-trifluoromethyl-1,4-dihydro-2H-quinazolin-3-yl}-methanesulfonamide] | Yes |
| CS(=O)(=O)Nn1c(=O)[nH]c2cc(C(F)(F)F)c(-c3ccnn3O)cc2c1=O [Compound C-5, N-[6-(2-Hydroxy-2H-pyrazol-3-yl)-2,4-dioxo-7-trifluoromethyl-1,4-dihydro-2H-quinazolin-3-yl]-methanesulfonamide] | Yes |
| CCc1cc2[nH]c(=O)n(NS(C)(=O)=O)c(=O)c2cc1-c1ccnn1C(C)C [Compound C-6, N-[7-Ethyl-6-(2-isopropyl-2H-pyrazol-3-yl)-2,4-dioxo-1,4-dihydro-2H-quinazolin-3-yl]-methanesulfonamide] | Yes |
| CC(C)c1cc2[nH]c(=O)n(NS(C)(=O)=O)c(=O)c2cc1-c1ccnn1C [Compound C-7, N-[7-Isopropyl-6-(2-methyl-2H-pyrazol-3-yl)-2,4-dioxo-1,4-dihydro-2H-quinazolin-3-yl]-methanesulfonamide] | Yes |
| CC(C)c1cc2[nH]c(=O)n(NS(C)(=O)=O)c(=O)c2cc1-c1ccnn1C(C)C [Compound C-8, N-[7-Isopropyl-6-(2-isopropyl-2H-pyrazol-3-yl)-2,4-dioxo-1,4-dihydro-2H-quinazolin-3-yl]-methanesulfonamide] | yes |
| Cn1nccc1-c1cc2c(=O)n(NS(C)(=O)=O)c(=O)[nH]c2cc1C(F)F [Compound C-9, N-[7-Difluoromethyl-6-(2-methyl-2H-pyrazol-3-yl)-2,4-dioxo-1,4-dihydro-2H-quinazolin-3-yl]-methanesulfonamide] | Yes |
| CC(C)n1nccc1-c1cc2c(=O)n(NS(C)(=O)=O)c(=O)[nH]c2cc1C(F)F [Compound C-10, N-[7-Difluoromethyl-6-(2-isopropyl-2H-pyrazol-3-yl)-2,4-dioxo-1,4-dihydro-2H-quinazolin-3-yl]-methanesulfonamide] | Yes |
| CCc1cc2[nH]c(=O)n(NS(C)(=O)=O)c(=O)c2cc1-c1ccnn1C [Compound C-11, N-[7-Ethyl-6-(2-methyl-2H-pyrazol-3-yl)-2,4-dioxo-1,4-dihydro-2H-quinazolin-3-yl]-methanesulfonamide] | Yes |
| CCc1cc2[nH]c(=O)n(NS(C)(=O)=O)c(=O)c2cc1-c1ccnn1CC [Compound C-12, N-[7-Ethyl-6-(2-ethyl-2H-pyrazol-3-yl)-2,4-dioxo-1,4-dihydro-2H-quinazolin-3-yl]-methanesulfonamide] | Yes |
| Cn1nccc1-c1cc2c(=O)n(NS(C)(=O)=O)c(=O)[nH]c2cc1C(C)(F)F [Compound C-15, N-[7-(1,1-difluoro-ethyl)-6-(2-methyl-2H-pyrazol-3-yl)-2,4-dioxo-1,4-dihydro-2H-quinazolin-3-yl]-methanesulfonamide] | Yes |
| CC(C)n1nccc1-c1cc2c(=O)n(NS(C)(=O)=O)c(=O)[nH]c2cc1C(C)(F)F [Compound C-16, N-[7-(1,1-difluoro-ethyl)-6-(2-isopropyl-2H-pyrazol-3-yl)-2,4-dioxo-1,4-dihydro-2H-quinazolin-3-yl]-methanesulfonamide] | Yes |
| CC(F)c1cc2[nH]c(=O)n(NS(C)(=O)=O)c(=O)c2cc1-c1ccnn1C(C)C (stereo not drawn) [Compound C-17, N-[7-(1-fluoro-ethyl)-6-(2-isopropyl-2H-pyrazol-3-yl)-2,4-dioxo-1,4-dihydro-2H-quinazolin-3-yl]-methanesulfonamide] | Yes |
| Cn1nccc1-c1cc2c(=O)n(NS(C)(=O)=O)c(=O)[nH]c2cc1C(F)(F)F [Compound C-18, N-[6-(2-Methyl-2H-pyrazol-3-yl)-2,4-dioxo-7-trifluoromethyl-1,4-dihydro-2H-quinazolin-3-yl]-methanesulfonamide] | Yes |
